What follows are molecules tested on rat peritoneal neutrophils (assay: Inhibition of ionophore-stimulated release of free arachidonic acid from [14C]-arachidonic acid pre-labelled rat peritoneal neutrophils). Settings: read-out: IC50, concentration required to inhibit by 50% compared to controls the release of radiolabelled products into supernatant liquid.
Type: cell-based
From the text: The inhibition of ionophore-stimulated release of free arachidonic acid from [^14 C]-arachidonic acid pre-labelled rat peritoneal neutrophils was studied using modifications of the method of Ahnfelt-Ronne and Arrigoni-Martelli [Biochemical Pharmacol., (1982) Vol. 31, p. 2619]. The results below show the micromolar concentrations of test compound required to inhibit, by 50% compared to controls, the release of radiolabelled products into supernatant liquid (IC50 -μM).

IC50 [µM] | Compound
6.8 | C=C(C)C(=O)c1nc2nc(SC)c(CC)c(C)n2c1Br [Example 1, 1-(3-bromo-6-ethyl-5-methyl-7-methylthio-imidazo[1,2-a]pyrimidin-2-yl)-2-methyl-2-propen-1-one]
17 | C=C(C)C(=O)c1nc2nc(OC)c(CC)c(C)n2c1Br [Example 2, (3-bromo 6-ethyl 7-methoxy 5-methylimidazo [1,2-a]pyrimidin-2-yl) isopropenyl methanone]
21 | C=C(C)C(=O)c1nc2nc(OC)c(CC)c(C)n2c1Cl [Example 3, (3-chloro 6-ethyl 7-methoxy 5-methylimidazo [1,2-a]pyrimidin-2-yl) isopropenyl methanone]
7.4 | C=C(C)C(=O)c1nc2nc(OC)cc(C)n2c1Br [Example 4]
1.7 | C=CC(=O)c1nc2nc(OC)c(CC)c(C)n2c1Br [Example 5, (3-bromo 6-ethyl 7-methoxy 5-methylimidazo [1,2-a]pyrimidin-2-yl) ethenyl methanone]
3.8 | C=C(C)C(=O)c1cn(-c2ccc(CC)cc2)c(SC)n1 [Example 6, [1-(4-ethylphenyl) 2-imidazol-4-yl] isopropenyl methanone]
2.5 | C=C(C)C(=O)c1nc(SC)n(-c2ccc(CC)cc2)c1Br [Example 7, [1-(4-ethylphenyl) 5-bromo 2-thiomethylimidazol-4-yl] isopropenyl methanone]
7.2 | C=C(C)C(=O)c1nc(SC)n(-c2ccc(OC)cc2)c1Br [Example 8, [1-(4-methoxyphenyl) 5-bromo 2-thiomethylimidazol-4-yl] isopropenyl methanone]
9.1 | C=C(C)C(=O)c1nc(SC)n(-c2ccc(OC)cc2)c1Cl [Example 9, [1-(4-methoxyphenyl) 5-chloro 2-thiomethylimidazol-4-yl] isopropenyl methanone]
10 | C=C(C)C(=O)c1nc(SC)n(-c2ccc(C)cc2)c1Br [Example 10, [1-(4-methylphenyl) 5-bromo 2-thiomethylimidazol-4-yl] isopropenyl methanone]
3.7 | C=C(C)C(=O)c1nc(SC(C)C)n(-c2ccc(C)cc2)c1Br [Example 11, [1-(4-methylphenyl) 5-bromo 2-thioisopropylimidazol-4-yl] isopropenyl methanone]
15 | C=C(C)C(=O)c1nc(SC)n(-c2ccc(F)cc2)c1Br [Example 12, [1-(4-fluorophenyl) 5-bromo 2-thiomethylimidazol-4-yl] isopropenyl methanone]
2.3 | C=CC(=O)c1nc(SC)n(-c2ccc(OC)cc2)c1Br [Example 13, [1-(4-methoxyphenyl) 5-bromo 2-thiomethylimidazol-4-yl] ethenyl methanone]
> 10 | C=C(C)C(=O)c1nc(SC)n(-c2ccc(O)cc2)c1Br [Example 14, [5-bromo-1-(4-hydroxyphenyl)-2-methylthioimidazol-4-yl]-2-methyl-2-propen-1-one]
17 | C=C(C)C(=O)c1nc(SC(C)C)n(CC)c1Br [Example 15, (1-ethyl 5-bromo 2-thioisopropyl imidazol-4-yl) isopropenyl methanone]
4.4 | C=C(C)C(=O)c1nc([S+]([O-])C(C)C)n(-c2ccc(CC)cc2)c1Cl (stereo not drawn) [Example 16, [5-chloro-1-(4-ethylphenyl)-2-(prop-2-ylsulfinyl)-imidazol-4-yl]-2-methyl-2-propen-1-one]
12 | CCc1c(OC)nc2nc(C(=O)C#Cc3ccccc3)cn2c1C [Example 18, (6-ethyl 7-methoxy 5-methylimidazo [1,2-a]pyrimidin-2-yl) phenylethynyl methanone]
16 | CCc1c(OC)nc2nc(C(=O)C#CC(C)(C)C)cn2c1C [Example 19, 1-(6-ethyl 7-methoxy 5-methylimidazo [1,2-a]pyrimidin-2-yl) (3,3-dimethylbut-1-ynyl) methanone]
4.2 | CCc1c(OC)nc2nc(C(=O)C#CC(C)(C)C)c(Br)n2c1C [Example 20, (3-bromo 6-ethyl 7-methoxy 5-methylimidazo [1,2-a]pyrimidin-2-yl) (3,3-dimethylbut-1-ynyl) methanone]
1.5 | CCc1c(OC)nc2nc(C(=O)C#Cc3ccccc3)c(Br)n2c1C [Example 21, (3-bromo 6-ethyl 7-methoxy 5-methylimidazo [1,2-a]pyrimidin-2-yl) (2-phenylethy-1-yl) methanone]
59 | CCc1c(OC)nc2nc(C(=O)C#CCO)c(Br)n2c1C [Example 22, 1-(3-bromo-6-ethyl-7-methoxy-5-methyl-imidazo[1,2-a]pyrimidin-2-yl)-4-hydroxy-2-butyn-1-one]
46 | CCc1c(OC)nc2nc(C(=O)C#CCO)cn2c1C [Example 23, 1-(6-ethyl-7-methoxy-5-methylimidazo[1,2-a]pyrimidin-2-yl)-4-hydroxy-2-butyn-1-one]
7.2 | CC#CC(=O)c1nc2nc(OC)c(CC)c(C)n2c1Br [Example 24, (3-bromo 6-ethyl 7-methoxy 5-methylimidazo [1,2-a]pyrimidin-2-yl) (propyn-1-ynyl) methanone]
28 | C=C(C)C(=O)c1nc2ccccn2c1Br [Example 25, (3-bromoimidazo [1,2-a]pyridin-2-yl) isopropenyl methanone (chlorhydrate)]
> 100 | C=C(C)C(=O)c1cn2ccccc2n1 [Example 26, (imidazo [1,2-a]pyridin-2-yl) isopropenyl methanone]
41 | O=C(C#Cc1ccccc1)c1cn2ccccc2n1 [Example 27, (imidazo [1,2-a]pyridin-2-yl) (2-phenylethyn-1-yl) methanone]
5.2 | O=C(C#Cc1ccccc1)c1nc2ccccn2c1Br [Example 28, 3-bromoimidazo [1,2-a] pyridin-2-yl (2-phenylethyn-1-yl) methanone]

Source: patent publication US5063229A, “Imidazolo [1,2-a]pyrimidines and medical use thereof” (Roussel Ulcaf, priority 1986, dated 1991)
